{"source": "patent US20230181614A1", "about": "“ADMINISTRATION OF CITICOLINE TO IMPROVE COGNITIVE PERFORMANCE, ATTENTIONAL PERFORMANCE, AND MOTOR FUNCTION” (KYOWA HAKKO BIO CO., LTD., priority 2014, published 2023)", "system": "Healthy subjects, ages 13-18", "test": "General Questionnaire", "type": "in vivo, human", "from_the_text": "Study participants were screened by telephone prior to study enrollment. Healthy subjects, ages 13-18, with no significant medical conditions and no history of co-morbid psychiatric disorder, current Axis I or II diagnosis, or previous participation in a pharmacotherapeutic trial, were selected. Use of any psychotropic medication or any previous head injury resulting in loss of consciousness for 5 or more minutes were used as exclusion criteria. While no participant met criteria for a neuropsychiatric disorder at enrollment, clinical assessments were still completed throughout the study to evaluate changes in mood state. In addition, self-reports of sleep habits, lifestyle, and exercise routines were also administered at baseline as well as at each study visit to assess changes in health habits during study participation. Following the completion of Visit 1 assessment, participants were given their 28-day supply of citicoline (250 mg or 500 mg) or placebo, which was randomly assigned. They were instructed to take one capsule a day every day for the next 28 days. Visit 2 occurred fourteen days after Visit 1. At Visit 2, the remaining study pills were counted and participant dosage calendars were checked to ensure compliance with the protocol. Additional neuropsychological measures and clinical assessments were administered during this visit. Participants returned for Visit 3 fourteen days later, on the 28th day of their study participation. The pill bottle and the dosage calendar were collected from each participant. Urine and blood were again obtained. Participants also participated in similar clinical and neuropsychological testing and clinical measures that were given during visit 1. The General Questionnaire and Exercise and Life Style Questionnaire are self-report questionnaires designed to assess a variety of symptoms, behaviors, and self-perceptions, including mood, complexion, exercise, food, and alcohol habits of each of the participants. The General Questionnaire was administered during each of the three study visits; the Exercise and Life Style Questionnaire was administered during each of the three study visits. The General Questionnaire included five summary categories (Vision, Depression, Attention, Sleep, and Complexion) each of which had multiple individual items. Within and between group analyses are reported below for each of the summary categories."}
{"smiles": "C[N+](C)(C)CCOP(=O)(O)OP(=O)([O-])OC[C@H]1O[C@@H](n2ccc(N)nc2=O)[C@H](O)[C@@H]1O", "note": "[citicoline, Cytidine 5′-diphosphocholine]", "values": [{"measurement": "General Questionnaire Vision Q2, Mean", "setting": "250 mg/day, V3 (day 28)", "result": 2.44}, {"measurement": "General Questionnaire Vision Q3, Mean", "setting": "250 mg/day, V3 (day 28)", "result": 1.81}, {"measurement": "General Questionnaire Vision Total, Mean", "setting": "250 mg/day, V3 (day 28)", "result": 6.59}, {"measurement": "Attention Total V3-V1 Difference Mean", "setting": "500 mg/day", "result": -5.17}, {"measurement": "Complexion Total V3-V1 Difference Mean", "setting": "500 mg/day", "result": -1.42}, {"measurement": "Depression Total V3-V1 Difference Mean", "setting": "500 mg/day", "result": -5.21}, {"measurement": "Sleep Total V3-V1 Difference Mean", "setting": "500 mg/day", "result": -3.25}, {"measurement": "Vision Total V3-V1 Difference Mean", "setting": "500 mg/day", "result": -1.50}, {"measurement": "Attention Q13 V1 Mean", "setting": "500 mg/day, Visit 1", "result": 2.42}, {"measurement": "Attention Q14 V1 Mean", "setting": "500 mg/day, Visit 1", "result": 2.21}, {"measurement": "Attention Q15 V1 Mean", "setting": "500 mg/day, Visit 1", "result": 2.63}, {"measurement": "Attention Q16 V1 Mean", "setting": "500 mg/day, Visit 1", "result": 2.83}, {"measurement": "Attention Q17 V1 Mean", "setting": "500 mg/day, Visit 1", "result": 1.96}, {"measurement": "Attention Q18 V1 Mean", "setting": "500 mg/day, Visit 1", "result": 2.79}, {"measurement": "Attention Q19 V1 Mean", "setting": "500 mg/day, Visit 1", "result": 7.29}, {"measurement": "Attention Q20 V1 Mean", "setting": "500 mg/day, Visit 1", "result": 2.54}, {"measurement": "Attention Q21 V1 Mean", "setting": "500 mg/day, Visit 1", "result": 3.25}, {"measurement": "Attention Q22 V1 Mean", "setting": "500 mg/day, Visit 1", "result": 1.83}, {"measurement": "Attention Q23 V1 Mean", "setting": "500 mg/day, Visit 1", "result": 2.92}, {"measurement": "Attention Q24 V1 Mean", "setting": "500 mg/day, Visit 1", "result": 2.46}, {"measurement": "Attention Total V1 Mean", "setting": "500 mg/day, Visit 1", "result": 35.13}, {"measurement": "Complexion Q33 V1 Mean", "setting": "500 mg/day, Visit 1", "result": 2.58}, {"measurement": "Complexion Q34 V1 Mean", "setting": "500 mg/day, Visit 1", "result": 1.88}, {"measurement": "Complexion Total V1 Mean", "setting": "500 mg/day, Visit 1", "result": 4.46}, {"measurement": "Depression Q4 V1 Mean", "setting": "500 mg/day, Visit 1", "result": 1.75}, {"measurement": "Depression Q5 V1 Mean", "setting": "500 mg/day, Visit 1", "result": 2.46}, {"measurement": "Depression Q6 V1 Mean", "setting": "500 mg/day, Visit 1", "result": 2.21}, {"measurement": "Depression Q7 V1 Mean", "setting": "500 mg/day, Visit 1", "result": 3.13}, {"measurement": "Depression Q8 V1 Mean", "setting": "500 mg/day, Visit 1", "result": 1.92}, {"measurement": "Depression Q9 V1 Mean", "setting": "500 mg/day, Visit 1", "result": 3.04}, {"measurement": "Depression Q10 V1 Mean", "setting": "500 mg/day, Visit 1", "result": 2.00}, {"measurement": "Depression Q11 V1 Mean", "setting": "500 mg/day, Visit 1", "result": 2.00}, {"measurement": "Depression Q12 V1 Mean", "setting": "500 mg/day, Visit 1", "result": 2.04}, {"measurement": "Depression Total V1 Mean", "setting": "500 mg/day, Visit 1", "result": 20.54}, {"measurement": "Sleep Q25 V1 Mean", "setting": "500 mg/day, Visit 1", "result": 3.54}, {"measurement": "Sleep Q26 V1 Mean", "setting": "500 mg/day, Visit 1", "result": 2.54}, {"measurement": "Sleep Q27 V1 Mean", "setting": "500 mg/day, Visit 1", "result": 2.00}, {"measurement": "Sleep Q28 V1 Mean", "setting": "500 mg/day, Visit 1", "result": 2.96}, {"measurement": "Sleep Q29 V1 Mean", "setting": "500 mg/day, Visit 1", "result": 2.00}, {"measurement": "Sleep Q30 V1 Mean", "setting": "500 mg/day, Visit 1", "result": 2.04}, {"measurement": "Sleep Q31 V1 Mean", "setting": "500 mg/day, Visit 1", "result": 2.33}, {"measurement": "Sleep Q32 V1 Mean", "setting": "500 mg/day, Visit 1", "result": 3.54}, {"measurement": "Sleep Total V1 Mean", "setting": "500 mg/day, Visit 1", "result": 20.83}, {"measurement": "Vision Q1 V1 Mean", "setting": "500 mg/day, Visit 1", "result": 2.75}, {"measurement": "Vision Q2 V1 Mean", "setting": "500 mg/day, Visit 1", "result": 2.54}, {"measurement": "Vision Q3 V1 Mean", "setting": "500 mg/day, Visit 1", "result": 1.71}, {"measurement": "Vision Total V1 Mean", "setting": "500 mg/day, Visit 1", "result": 7.00}, {"measurement": "Attention Q13 V3 Mean", "setting": "500 mg/day, Visit 3", "result": 1.96}, {"measurement": "Attention Q14 V3 Mean", "setting": "500 mg/day, Visit 3", "result": 1.83}, {"measurement": "Attention Q15 V3 Mean", "setting": "500 mg/day, Visit 3", "result": 1.92}, {"measurement": "Attention Q16 V3 Mean", "setting": "500 mg/day, Visit 3", "result": 1.92}, {"measurement": "Attention Q17 V3 Mean", "setting": "500 mg/day, Visit 3", "result": 1.75}, {"measurement": "Attention Q18 V3 Mean", "setting": "500 mg/day, Visit 3", "result": 1.92}, {"measurement": "Attention Q19 V3 Mean", "setting": "500 mg/day, Visit 3", "result": 8.42}, {"measurement": "Attention Q20 V3 Mean", "setting": "500 mg/day, Visit 3", "result": 1.92}, {"measurement": "Attention Q21 V3 Mean", "setting": "500 mg/day, Visit 3", "result": 2.42}, {"measurement": "Attention Q22 V3 Mean", "setting": "500 mg/day, Visit 3", "result": 1.63}, {"measurement": "Attention Q23 V3 Mean", "setting": "500 mg/day, Visit 3", "result": 2.13}, {"measurement": "Attention Q24 V3 Mean", "setting": "500 mg/day, Visit 3", "result": 2.17}, {"measurement": "Attention Total V3 Mean", "setting": "500 mg/day, Visit 3", "result": 29.96}, {"measurement": "Complexion Q33 V3 Mean", "setting": "500 mg/day, Visit 3", "result": 1.75}, {"measurement": "Complexion Q34 V3 Mean", "setting": "500 mg/day, Visit 3", "result": 1.29}, {"measurement": "Complexion Total V3 Mean", "setting": "500 mg/day, Visit 3", "result": 3.04}, {"measurement": "Depression Q4 V3 Mean", "setting": "500 mg/day, Visit 3", "result": 1.58}, {"measurement": "Depression Q5 V3 Mean", "setting": "500 mg/day, Visit 3", "result": 1.88}, {"measurement": "Depression Q6 V3 Mean", "setting": "500 mg/day, Visit 3", "result": 1.67}, {"measurement": "Depression Q7 V3 Mean", "setting": "500 mg/day, Visit 3", "result": 2.25}, {"measurement": "Depression Q8 V3 Mean", "setting": "500 mg/day, Visit 3", "result": 1.46}, {"measurement": "Depression Q9 V3 Mean", "setting": "500 mg/day, Visit 3", "result": 2.00}, {"measurement": "Depression Q10 V3 Mean", "setting": "500 mg/day, Visit 3", "result": 1.54}, {"measurement": "Depression Q11 V3 Mean", "setting": "500 mg/day, Visit 3", "result": 1.38}, {"measurement": "Depression Q12 V3 Mean", "setting": "500 mg/day, Visit 3", "result": 1.58}, {"measurement": "Depression Total V3 Mean", "setting": "500 mg/day, Visit 3", "result": 15.33}, {"measurement": "Sleep Q25 V3 Mean", "setting": "500 mg/day, Visit 3", "result": 2.50}, {"measurement": "Sleep Q26 V3 Mean", "setting": "500 mg/day, Visit 3", "result": 1.71}, {"measurement": "Sleep Q27 V3 Mean", "setting": "500 mg/day, Visit 3", "result": 1.83}, {"measurement": "Sleep Q28 V3 Mean", "setting": "500 mg/day, Visit 3", "result": 2.29}, {"measurement": "Sleep Q29 V3 Mean", "setting": "500 mg/day, Visit 3", "result": 1.96}, {"measurement": "Sleep Q30 V3 Mean", "setting": "500 mg/day, Visit 3", "result": 1.96}, {"measurement": "Sleep Q31 V3 Mean", "setting": "500 mg/day, Visit 3", "result": 2.21}, {"measurement": "Sleep Q32 V3 Mean", "setting": "500 mg/day, Visit 3", "result": 3.13}, {"measurement": "Sleep Total V3 Mean", "setting": "500 mg/day, Visit 3", "result": 17.58}, {"measurement": "Vision Q1 V3 Mean", "setting": "500 mg/day, Visit 3", "result": 1.92}, {"measurement": "Vision Q2 V3 Mean", "setting": "500 mg/day, Visit 3", "result": 2.08}, {"measurement": "Vision Q3 V3 Mean", "setting": "500 mg/day, Visit 3", "result": 1.50}, {"measurement": "Vision Total V3 Mean", "setting": "500 mg/day, Visit 3", "result": 5.50}]}
